Experimental data from paper PMC3115942 (PLoS ONE, 2011).

Legend:
Experiment in all cases: Millipore kinaseprofiler diversity array
Assay type in all cases: biochemical
Details in all cases: 10 µM MS-0022
MAPKAP-K2(h) = biological target: T1, MAPKAP-K2(h) (Homo sapiens, UniProt P49137)
T1 construct: purchased Millipore (Upstate) KinaseProfiler
Procedure: (§1) Table 4 Kinase activity in presence of 10 µM MS-0022 in a kinaseprofiler diversity array. | column: Activity %

CDK2/cyclinA(h) = biological target: T2, CDK2/cyclinA(h) (Homo sapiens, UniProt P24941)
T2 construct: purchased Millipore (Upstate) KinaseProfiler
Procedure: as §1

GRK5(h) = biological target: T3, GRK5(h) (Homo sapiens, UniProt P34947)
T3 construct: purchased Millipore (Upstate) KinaseProfiler
Procedure: as §1

SAPK2a(h) = biological target: T4, SAPK2a(h) (Homo sapiens, UniProt Q16539)
T4 construct: purchased Millipore (Upstate) KinaseProfiler
Procedure: as §1

CDK9/cyclin T1(h) = biological target: T5, CDK9/cyclin T1(h) (Homo sapiens, UniProt P50750)
T5 construct: purchased Millipore (Upstate) KinaseProfiler
Procedure: as §1

DRAK1(h) = biological target: T6, DRAK1(h) (Homo sapiens, UniProt Q9UEE5)
T6 construct: purchased Millipore (Upstate) KinaseProfiler
Procedure: as §1

Rsk1(h) = biological target: T7, Rsk1(h) (Homo sapiens, UniProt Q15418)
T7 construct: purchased Millipore (Upstate) KinaseProfiler
Procedure: as §1

JAK2(h) = biological target: T8, JAK2(h) (Homo sapiens, UniProt O60674)
T8 construct: purchased Millipore (Upstate) KinaseProfiler
Procedure: as §1

eEF-2K(h) = biological target: T9, eEF-2K(h) (Homo sapiens, UniProt O00418)
T9 construct: purchased Millipore (Upstate) KinaseProfiler
Procedure: as §1

PRAK(h) = biological target: T10, PRAK(h) (Homo sapiens, UniProt Q8IW41)
T10 construct: purchased Millipore (Upstate) KinaseProfiler
Procedure: as §1

ROCK-I(h) = biological target: T11, ROCK-I(h) (Homo sapiens, UniProt Q13464)
T11 construct: purchased Millipore (Upstate) KinaseProfiler
Procedure: as §1

CDK1/cyclinB(h) = biological target: T12, CDK1/cyclinB(h) (Homo sapiens, UniProt P06493)
T12 construct: purchased Millipore (Upstate) KinaseProfiler
Procedure: as §1

PKG1α(h) = biological target: T13, PKG1α(h) (Homo sapiens, UniProt Q13976)
T13 construct: purchased Millipore (Upstate) KinaseProfiler
Procedure: as §1

MSK2(h) = biological target: T14, MSK2(h) (Homo sapiens, UniProt O75676)
T14 construct: purchased Millipore (Upstate) KinaseProfiler
Procedure: as §1

PAK2(h) = biological target: T15, PAK2(h) (Homo sapiens, UniProt Q13177)
T15 construct: purchased Millipore (Upstate) KinaseProfiler
Procedure: as §1

NEK2(h) = biological target: T16, NEK2(h) (Homo sapiens, UniProt P51955)
T16 construct: purchased Millipore (Upstate) KinaseProfiler
Procedure: as §1

ASK1(h) = biological target: T17, ASK1(h) (Homo sapiens, UniProt Q99683)
T17 construct: purchased Millipore (Upstate) KinaseProfiler
Procedure: as §1

EGFR(h) = biological target: T18, EGFR(h) (Homo sapiens, UniProt P00533)
T18 construct: purchased Millipore (Upstate) KinaseProfiler
Procedure: as §1

CaMKI(h) = biological target: T19, CaMKI(h) (Homo sapiens, UniProt Q14012)
T19 construct: purchased Millipore (Upstate) KinaseProfiler
Procedure: as §1

KDR(h) = biological target: T20, KDR(h) (Homo sapiens, UniProt P35968)
T20 construct: purchased Millipore (Upstate) KinaseProfiler
Procedure: as §1

Abl(h) = biological target: T21, Abl(h) (Homo sapiens, UniProt P00519)
T21 construct: purchased Millipore (Upstate) KinaseProfiler
Procedure: as §1

SRPK1(h) = biological target: T22, SRPK1(h) (Homo sapiens, UniProt Q96SB4)
T22 construct: purchased Millipore (Upstate) KinaseProfiler
Procedure: as §1

Fyn(h) = biological target: T23, Fyn(h) (Homo sapiens, UniProt P06241)
T23 construct: purchased Millipore (Upstate) KinaseProfiler
Procedure: as §1

IRAK4(h) = biological target: T24, IRAK4(h) (Homo sapiens, UniProt Q9NWZ3)
T24 construct: purchased Millipore (Upstate) KinaseProfiler
Procedure: as §1

Lyn(h) = biological target: T25, Lyn(h) (Homo sapiens, UniProt P07948)
T25 construct: purchased Millipore (Upstate) KinaseProfiler
Procedure: as §1

EphA5(h) = biological target: T26, EphA5(h) (Homo sapiens, UniProt P54756)
T26 construct: purchased Millipore (Upstate) KinaseProfiler
Procedure: as §1

MEK1(h) = biological target: T27, MEK1(h) (Homo sapiens, UniProt Q02750)
T27 construct: purchased Millipore (Upstate) KinaseProfiler
Procedure: as §1

c-RAF(h) = biological target: T28, c-RAF(h) (Homo sapiens, UniProt P04049)
T28 construct: purchased Millipore (Upstate) KinaseProfiler
Procedure: as §1

JNK3(h) = biological target: T29, JNK3(h) (Homo sapiens, UniProt P53779)
T29 construct: purchased Millipore (Upstate) KinaseProfiler
Procedure: as §1

Rse(h) = biological target: T30, Rse(h) (Homo sapiens, UniProt Q06418)
T30 construct: purchased Millipore (Upstate) KinaseProfiler
Procedure: as §1

IGF-1R(h) = biological target: T31, IGF-1R(h) (Homo sapiens, UniProt P08069)
T31 construct: purchased Millipore (Upstate) KinaseProfiler
Procedure: as §1

CK1γ1(h) = biological target: T32, CK1γ1(h) (Homo sapiens, UniProt Q9HCP0)
T32 construct: purchased Millipore (Upstate) KinaseProfiler
Procedure: as §1

EphB4(h) = biological target: T33, EphB4(h) (Homo sapiens, UniProt P54760)
T33 construct: purchased Millipore (Upstate) KinaseProfiler
Procedure: as §1

PKBα(h) = biological target: T34, PKBα(h) (Homo sapiens, UniProt P31749)
T34 construct: purchased Millipore (Upstate) KinaseProfiler
Procedure: as §1

DYRK2(h) = biological target: T35, DYRK2(h) (Homo sapiens, UniProt Q92630)
T35 construct: purchased Millipore (Upstate) KinaseProfiler
Procedure: as §1

MLK1(h) = biological target: T36, MLK1(h) (Homo sapiens, UniProt P80192)
T36 construct: purchased Millipore (Upstate) KinaseProfiler
Procedure: as §1

MST1(h) = biological target: T37, MST1(h) (Homo sapiens, UniProt Q13043)
T37 construct: purchased Millipore (Upstate) KinaseProfiler
Procedure: as §1

PKCθ(h) = biological target: T38, PKCθ(h) (Homo sapiens, UniProt Q04759)
T38 construct: purchased Millipore (Upstate) KinaseProfiler
Procedure: as §1

Mnk2(h) = biological target: T39, Mnk2(h) (Homo sapiens, UniProt Q9HBH9)
T39 construct: purchased Millipore (Upstate) KinaseProfiler
Procedure: as §1

cKit(h) = biological target: T40, cKit(h) (Homo sapiens, UniProt P10721)
T40 construct: purchased Millipore (Upstate) KinaseProfiler
Procedure: as §1

LOK(h) = biological target: T41, LOK(h) (Homo sapiens, UniProt O94804)
T41 construct: purchased Millipore (Upstate) KinaseProfiler
Procedure: as §1

PKCα(h) = biological target: T42, PKCα(h) (Homo sapiens, UniProt P17252)
T42 construct: purchased Millipore (Upstate) KinaseProfiler
Procedure: as §1

T21 sequence (P00519 whole entry): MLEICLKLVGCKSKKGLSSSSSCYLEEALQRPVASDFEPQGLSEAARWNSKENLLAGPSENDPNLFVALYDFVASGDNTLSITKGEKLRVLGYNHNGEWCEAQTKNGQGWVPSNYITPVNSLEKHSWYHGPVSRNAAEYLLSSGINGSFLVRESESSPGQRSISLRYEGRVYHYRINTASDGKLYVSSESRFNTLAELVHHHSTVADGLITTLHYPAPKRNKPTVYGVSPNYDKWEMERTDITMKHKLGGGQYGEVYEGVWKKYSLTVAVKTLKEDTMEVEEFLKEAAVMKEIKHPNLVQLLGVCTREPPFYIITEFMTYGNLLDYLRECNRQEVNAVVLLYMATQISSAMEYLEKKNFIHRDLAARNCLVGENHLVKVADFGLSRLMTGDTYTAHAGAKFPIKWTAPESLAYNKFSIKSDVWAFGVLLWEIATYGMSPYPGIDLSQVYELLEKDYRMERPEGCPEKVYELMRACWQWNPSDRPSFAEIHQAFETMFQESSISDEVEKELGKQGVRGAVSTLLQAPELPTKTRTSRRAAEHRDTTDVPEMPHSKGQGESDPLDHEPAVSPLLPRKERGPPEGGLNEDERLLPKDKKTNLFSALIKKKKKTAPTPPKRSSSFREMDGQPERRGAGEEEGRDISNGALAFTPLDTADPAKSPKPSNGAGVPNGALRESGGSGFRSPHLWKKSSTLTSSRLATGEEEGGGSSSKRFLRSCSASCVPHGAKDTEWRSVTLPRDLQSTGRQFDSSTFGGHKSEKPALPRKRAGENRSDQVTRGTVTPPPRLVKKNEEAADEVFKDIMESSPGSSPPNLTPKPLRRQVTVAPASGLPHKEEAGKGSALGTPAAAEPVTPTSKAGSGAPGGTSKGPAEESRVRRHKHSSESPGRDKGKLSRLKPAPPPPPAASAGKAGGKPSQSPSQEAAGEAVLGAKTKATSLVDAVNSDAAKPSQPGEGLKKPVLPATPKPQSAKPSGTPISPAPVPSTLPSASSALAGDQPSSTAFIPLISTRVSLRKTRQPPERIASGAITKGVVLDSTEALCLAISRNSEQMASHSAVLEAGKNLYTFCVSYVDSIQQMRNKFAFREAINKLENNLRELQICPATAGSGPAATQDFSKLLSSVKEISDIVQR
T20 sequence (P35968 20-1356): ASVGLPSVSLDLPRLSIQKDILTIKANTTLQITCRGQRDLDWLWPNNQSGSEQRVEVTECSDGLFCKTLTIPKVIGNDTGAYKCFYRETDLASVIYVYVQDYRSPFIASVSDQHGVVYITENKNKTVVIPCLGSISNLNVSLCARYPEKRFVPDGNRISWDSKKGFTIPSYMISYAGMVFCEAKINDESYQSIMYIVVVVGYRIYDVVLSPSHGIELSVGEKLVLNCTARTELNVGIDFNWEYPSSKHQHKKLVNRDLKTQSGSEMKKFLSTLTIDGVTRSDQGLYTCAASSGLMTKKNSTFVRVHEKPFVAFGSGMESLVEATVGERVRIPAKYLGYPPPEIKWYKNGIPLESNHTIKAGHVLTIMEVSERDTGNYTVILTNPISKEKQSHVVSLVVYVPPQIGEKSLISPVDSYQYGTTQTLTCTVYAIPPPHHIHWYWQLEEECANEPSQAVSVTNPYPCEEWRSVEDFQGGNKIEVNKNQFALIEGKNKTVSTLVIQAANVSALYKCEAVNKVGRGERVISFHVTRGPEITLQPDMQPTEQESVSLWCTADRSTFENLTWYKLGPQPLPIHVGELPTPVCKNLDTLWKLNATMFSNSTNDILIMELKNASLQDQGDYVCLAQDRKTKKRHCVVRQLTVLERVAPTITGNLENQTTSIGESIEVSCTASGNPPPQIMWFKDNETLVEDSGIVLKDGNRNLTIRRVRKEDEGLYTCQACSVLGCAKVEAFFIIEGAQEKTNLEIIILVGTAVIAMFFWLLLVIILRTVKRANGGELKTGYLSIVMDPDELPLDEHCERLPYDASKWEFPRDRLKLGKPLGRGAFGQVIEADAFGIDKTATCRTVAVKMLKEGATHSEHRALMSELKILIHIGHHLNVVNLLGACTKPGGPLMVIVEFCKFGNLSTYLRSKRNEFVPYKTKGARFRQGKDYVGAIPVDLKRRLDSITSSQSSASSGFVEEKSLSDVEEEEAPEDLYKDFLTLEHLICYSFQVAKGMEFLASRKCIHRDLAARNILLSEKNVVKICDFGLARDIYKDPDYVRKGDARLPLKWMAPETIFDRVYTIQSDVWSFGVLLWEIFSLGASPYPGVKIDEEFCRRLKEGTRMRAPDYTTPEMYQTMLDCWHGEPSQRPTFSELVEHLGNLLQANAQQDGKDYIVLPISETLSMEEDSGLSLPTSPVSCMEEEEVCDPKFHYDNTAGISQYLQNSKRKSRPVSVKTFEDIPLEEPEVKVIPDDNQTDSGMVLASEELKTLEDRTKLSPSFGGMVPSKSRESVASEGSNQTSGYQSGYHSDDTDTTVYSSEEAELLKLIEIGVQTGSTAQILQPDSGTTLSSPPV
T12 sequence (P06493 whole entry): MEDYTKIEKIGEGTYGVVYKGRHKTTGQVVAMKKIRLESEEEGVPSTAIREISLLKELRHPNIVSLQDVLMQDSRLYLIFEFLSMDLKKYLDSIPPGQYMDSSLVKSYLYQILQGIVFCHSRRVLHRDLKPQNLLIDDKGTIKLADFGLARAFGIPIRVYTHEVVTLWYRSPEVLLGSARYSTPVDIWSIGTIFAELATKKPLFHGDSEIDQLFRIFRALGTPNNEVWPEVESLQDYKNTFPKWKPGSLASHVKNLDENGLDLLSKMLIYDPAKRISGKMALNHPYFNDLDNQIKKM
T12 sequence (P14635 whole entry partner): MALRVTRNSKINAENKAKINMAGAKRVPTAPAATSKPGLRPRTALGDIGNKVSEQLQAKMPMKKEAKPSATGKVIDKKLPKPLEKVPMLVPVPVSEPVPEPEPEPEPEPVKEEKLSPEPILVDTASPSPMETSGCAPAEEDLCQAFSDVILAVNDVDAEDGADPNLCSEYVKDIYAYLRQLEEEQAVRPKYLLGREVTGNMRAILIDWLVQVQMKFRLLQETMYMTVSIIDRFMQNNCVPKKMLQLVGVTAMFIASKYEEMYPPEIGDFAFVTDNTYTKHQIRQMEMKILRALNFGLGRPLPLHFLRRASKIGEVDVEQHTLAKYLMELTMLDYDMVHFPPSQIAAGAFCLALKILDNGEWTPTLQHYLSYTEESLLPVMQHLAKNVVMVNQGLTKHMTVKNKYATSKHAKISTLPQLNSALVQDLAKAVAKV
T24 sequence (Q9NWZ3 whole entry): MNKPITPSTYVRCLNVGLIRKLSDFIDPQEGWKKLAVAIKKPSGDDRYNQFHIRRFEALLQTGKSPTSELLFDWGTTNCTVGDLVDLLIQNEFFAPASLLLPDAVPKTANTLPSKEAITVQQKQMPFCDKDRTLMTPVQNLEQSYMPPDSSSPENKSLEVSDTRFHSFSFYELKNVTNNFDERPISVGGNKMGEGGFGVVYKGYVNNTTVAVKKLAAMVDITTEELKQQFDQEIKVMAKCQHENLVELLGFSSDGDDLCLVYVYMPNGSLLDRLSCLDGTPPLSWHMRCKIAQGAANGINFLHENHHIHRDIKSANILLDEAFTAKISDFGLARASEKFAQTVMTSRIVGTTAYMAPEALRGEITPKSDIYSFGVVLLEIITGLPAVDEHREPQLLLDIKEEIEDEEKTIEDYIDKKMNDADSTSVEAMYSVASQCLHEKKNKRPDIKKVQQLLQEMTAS
T37 sequence (Q13043 whole entry): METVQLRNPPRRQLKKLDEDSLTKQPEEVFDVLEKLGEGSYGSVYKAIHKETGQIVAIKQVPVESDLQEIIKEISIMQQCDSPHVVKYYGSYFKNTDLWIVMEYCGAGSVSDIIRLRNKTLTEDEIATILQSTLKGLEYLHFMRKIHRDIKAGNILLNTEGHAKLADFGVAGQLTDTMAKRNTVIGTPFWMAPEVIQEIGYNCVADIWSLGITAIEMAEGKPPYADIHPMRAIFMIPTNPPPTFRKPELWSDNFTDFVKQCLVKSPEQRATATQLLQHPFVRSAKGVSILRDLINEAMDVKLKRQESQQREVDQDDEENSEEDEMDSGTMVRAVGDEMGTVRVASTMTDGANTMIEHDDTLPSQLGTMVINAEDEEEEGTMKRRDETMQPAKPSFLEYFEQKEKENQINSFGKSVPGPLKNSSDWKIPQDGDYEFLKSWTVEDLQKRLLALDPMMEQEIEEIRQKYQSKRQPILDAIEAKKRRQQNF
T14 sequence (O75676 whole entry): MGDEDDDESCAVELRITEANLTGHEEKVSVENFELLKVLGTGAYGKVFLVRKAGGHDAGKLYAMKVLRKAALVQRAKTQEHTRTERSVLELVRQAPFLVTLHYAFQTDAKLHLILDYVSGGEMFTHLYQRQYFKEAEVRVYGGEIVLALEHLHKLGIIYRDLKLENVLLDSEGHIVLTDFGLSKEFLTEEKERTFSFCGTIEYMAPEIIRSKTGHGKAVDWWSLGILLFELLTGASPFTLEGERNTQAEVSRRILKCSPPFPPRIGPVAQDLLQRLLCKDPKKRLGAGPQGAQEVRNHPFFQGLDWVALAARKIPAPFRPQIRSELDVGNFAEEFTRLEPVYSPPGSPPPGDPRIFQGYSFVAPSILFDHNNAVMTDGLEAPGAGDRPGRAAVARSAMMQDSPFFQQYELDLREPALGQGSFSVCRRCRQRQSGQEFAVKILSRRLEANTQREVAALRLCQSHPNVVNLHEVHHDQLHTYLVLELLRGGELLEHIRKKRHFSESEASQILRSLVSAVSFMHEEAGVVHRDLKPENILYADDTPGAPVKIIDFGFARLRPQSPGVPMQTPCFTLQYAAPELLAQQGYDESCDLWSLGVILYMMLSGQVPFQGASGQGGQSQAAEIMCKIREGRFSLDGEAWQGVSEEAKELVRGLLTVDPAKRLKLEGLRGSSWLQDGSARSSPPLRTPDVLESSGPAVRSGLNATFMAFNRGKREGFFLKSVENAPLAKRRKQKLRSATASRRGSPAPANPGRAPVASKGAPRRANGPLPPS

Compound: Cc1cccn2cc(-c3ccc(NC(=O)c4ccccc4Br)cc3)nc12 [MS-0022, 2-bromo-N-(4-(8-methylimidazo[1,2-a]pyridin-2-yl)phenyl)benzamide]
- activity at 10 µM (MAPKAP-K2(h)): 92%
- activity at 10 µM (CDK2/cyclinA(h)): 98%
- activity at 10 µM (GRK5(h)): 119%
- activity at 10 µM (SAPK2a(h)): 102%
- activity at 10 µM (CDK9/cyclin T1(h)): 98%
- activity at 10 µM (DRAK1(h)): 97%
- activity at 10 µM (Rsk1(h)): 91%
- activity at 10 µM (JAK2(h)): 110%
- activity at 10 µM (eEF-2K(h)): 99%
- activity at 10 µM (PRAK(h)): 71%
- activity at 10 µM (ROCK-I(h)): 103%
- activity at 10 µM (CDK1/cyclinB(h)): 110%
- activity at 10 µM (PKG1α(h)): 94%
- activity at 10 µM (MSK2(h)): 92%
- activity at 10 µM (PAK2(h)): 93%
- activity at 10 µM (NEK2(h)): 127%
- activity at 10 µM (ASK1(h)): 91%
- activity at 10 µM (EGFR(h)): 84%
- activity at 10 µM (CaMKI(h)): 106%
- activity at 10 µM (KDR(h)): 103%
- activity at 10 µM (Abl(h)): 96%
- activity at 10 µM (SRPK1(h)): 102%
- activity at 10 µM (Fyn(h)): 100%
- activity at 10 µM (IRAK4(h)): 95%
- activity at 10 µM (Lyn(h)): 103%
- activity at 10 µM (EphA5(h)): 112%
- activity at 10 µM (MEK1(h)): 73%
- activity at 10 µM (c-RAF(h)): 106%
- activity at 10 µM (JNK3(h)): 71%
- activity at 10 µM (Rse(h)): 107%
- activity at 10 µM (IGF-1R(h)): 105%
- activity at 10 µM (CK1γ1(h)): 93%
- activity at 10 µM (EphB4(h)): 99%
- activity at 10 µM (PKBα(h)): 107%
- activity at 10 µM (DYRK2(h)): 97%
- activity at 10 µM (MLK1(h)): 103%
- activity at 10 µM (MST1(h)): 94%
- activity at 10 µM (PKCθ(h)): 103%
- activity at 10 µM (Mnk2(h)): 90%
- activity at 10 µM (cKit(h)): 109%
- activity at 10 µM (LOK(h)): 93%
- activity at 10 µM (PKCα(h)): 106%
